Experimental data as given in US20070166246A1, “Composition for oral cavity” (TOYO SHINYAKU CO., LTD., priority 2004, published 2007).

Tested on: blood flow in the lower gingiva
Test: Blood flow improvement in the gingiva using tablets (Example 3)
Type: in vivo, human
Details: gradually dissolved in the mouth (two tablets, about 2 mg extract; vitamin E 100 mg alone), four volunteers, mean ± standard deviation
Protocol: Next, using the tablets, an experiment was conducted with respect to the effect of improving blood flow in a tissue (the gingiva) of the mouth through the cooperation of four of the five volunteers in Example 1. More specifically, first, the volunteers put two tablets in their mouths, and ingested the tablets into the body while gradually dissolving the tablets in their mouths. Next, at predetermined times (five minutes and 15 minutes) after completion of ingestion of the tablets, the blood flow in the lower gingiva was measured with a blood flow meter. It should be noted that the blood flow meter and others that were used herein are the same as those in Example 1. Moreover, as an example of a substance that improves blood flow, vitamin E (100 mg) alone was ingested while being gradually dissolved in the mouth, and the blood flow was also measured. Furthermore, the tablets containing the pine bark extract (two tablets) were ingested by being swallowed at one gulp with 10 mL of distilled water, instead of being gradually dissolved in the mouth, and the blood flow was also measured.
The results of the blood flow measurement are shown as relative values, taking the measurement results of the blood flow measurement performed before putting the tablets in the mouth as 100. […]

vitamin E
blood flow in the lower gingiva, relative value (before putting the tablets in the mouth = 100) (5 min after ingestion): 116.99 ± 14.39
blood flow in the lower gingiva, relative value (before putting the tablets in the mouth = 100) (15 min after ingestion): 105.63 ± 16.16
